Source: US12622962B2 (priority 2019, dated 2026)

Legend:
[1] = test system: HBsAg antigen-specific IFN-γ; set-up: species or system C57BL/6(N) mice; conditions: mouse, in vivo
[2] = test system: HBcAg antigen-specific IFN-γ; set-up: species or system C57BL/6(N) mice; conditions: mouse, in vivo

QS-21 [QS21]
induced production level of HBsAg-specific IFN-γ, CpG T1 with different saponins [1]: best effect | induced production level of HBcAg-specific IFN-γ, CpG T1 with different saponins [2]: best effect
